Measured values from ChEMBL document CHEMBL2424579, “Quinazolin-4-one derivatives as selective histone deacetylase-6 inhibitors for the treatment of Alzheimer's disease” (J Med Chem, 2013).
The source made the active and inactive calls. No cut-off for these calls is given here.

What was measured:
[1] = molecular target: Poly [ADP-ribose] polymerase 1 (Homo sapiens) (UniProt P09874); assay: Inhibition of PARP1 (unknown origin) up to 25 uM
[2] = system: SH-SY5Y; assay: Induction of neurite outgrowth in human SH-SY5Y cells at 10 uM after 5 days; assay type: functional, cell-based
[3] = system: PC-12; assay: Induction of neurite outgrowth in rat PC12 cells after 5 days; assay type: functional, cell-based; conditions: PC-12, 120 h
[4] = system: PC-12; assay: Induction of neurite outgrowth in rat PC12 cells at 10 uM after 5 days; assay type: functional, cell-based
[5] = molecular target: T1, Histone deacetylase 8 (Homo sapiens, UniProt Q9BY41); assay: Inhibition of human recombinant HDAC8 expressed in baculovirus/sf9 cells using RHKAcKAc as substrate
T1 sequence (Q9BY41 whole entry): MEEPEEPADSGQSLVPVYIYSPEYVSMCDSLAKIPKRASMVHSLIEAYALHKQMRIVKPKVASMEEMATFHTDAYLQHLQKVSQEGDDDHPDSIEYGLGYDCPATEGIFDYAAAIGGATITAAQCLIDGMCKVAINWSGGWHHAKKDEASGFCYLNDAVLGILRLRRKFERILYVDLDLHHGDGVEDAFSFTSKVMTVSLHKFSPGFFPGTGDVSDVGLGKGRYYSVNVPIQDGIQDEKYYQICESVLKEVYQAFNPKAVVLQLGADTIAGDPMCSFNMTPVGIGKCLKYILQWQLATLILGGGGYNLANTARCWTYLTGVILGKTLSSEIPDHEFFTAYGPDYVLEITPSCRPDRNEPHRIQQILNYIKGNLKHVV

[6] = system: SH-SY5Y; assay: Increase of synaptic activity in human SH-SY5Y cells after 5 days by fluorescence assay; assay type: functional, cell-based; conditions: 120 h
[7] = system: PC-12; assay: Inhibition of HDAC6 in rat PC12 cells assessed as acetylation of histone H3 at 10 uM after 48 hrs by Western blotting analysis; assay type: cell-based
[8] = system: PC-12; assay: Induction iof GAP-43 protein expression in rat PC12 cells after 48 hrs by Western blotting analysis; assay type: functional, cell-based
[9] = molecular target: T2, Histone deacetylase 11 (Homo sapiens, UniProt Q96DB2); assay: Inhibition of human recombinant HDAC11 expressed in baculovirus/sf9 cells using RHKKAc as substrate
T2 sequence (Q96DB2 whole entry): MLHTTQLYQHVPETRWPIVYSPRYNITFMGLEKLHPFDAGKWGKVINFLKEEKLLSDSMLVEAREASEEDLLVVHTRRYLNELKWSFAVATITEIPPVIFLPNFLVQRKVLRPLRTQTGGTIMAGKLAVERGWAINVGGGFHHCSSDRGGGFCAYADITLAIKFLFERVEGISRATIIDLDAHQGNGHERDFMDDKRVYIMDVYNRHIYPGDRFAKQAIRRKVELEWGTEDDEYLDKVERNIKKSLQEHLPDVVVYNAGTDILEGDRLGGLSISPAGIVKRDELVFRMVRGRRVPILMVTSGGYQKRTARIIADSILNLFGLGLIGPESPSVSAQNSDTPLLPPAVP

[10] = system: PC-12; assay: Increase of synaptic activity in rat PC12 cells after 5 days by fluorescence assay; assay type: functional, cell-based; conditions: PC-12, 120 h
[11] = system: Vero; assay: Cytotoxicity against african green monkey Vero cells at 25 uM; assay type: cell-based; conditions: chlorocebus sabaeus
[12] = Cytotoxicity against human SH-SY5Y cells at 25 uM; assay type: cell-based
[13] = molecular target: T3, Protein deacetylase HDAC6 (Homo sapiens, UniProt Q9UBN7); assay: Inhibition of human recombinant HDAC6 expressed in baculovirus/sf9 cells using RHKKAc as substrate
T3 sequence (Q9UBN7 whole entry): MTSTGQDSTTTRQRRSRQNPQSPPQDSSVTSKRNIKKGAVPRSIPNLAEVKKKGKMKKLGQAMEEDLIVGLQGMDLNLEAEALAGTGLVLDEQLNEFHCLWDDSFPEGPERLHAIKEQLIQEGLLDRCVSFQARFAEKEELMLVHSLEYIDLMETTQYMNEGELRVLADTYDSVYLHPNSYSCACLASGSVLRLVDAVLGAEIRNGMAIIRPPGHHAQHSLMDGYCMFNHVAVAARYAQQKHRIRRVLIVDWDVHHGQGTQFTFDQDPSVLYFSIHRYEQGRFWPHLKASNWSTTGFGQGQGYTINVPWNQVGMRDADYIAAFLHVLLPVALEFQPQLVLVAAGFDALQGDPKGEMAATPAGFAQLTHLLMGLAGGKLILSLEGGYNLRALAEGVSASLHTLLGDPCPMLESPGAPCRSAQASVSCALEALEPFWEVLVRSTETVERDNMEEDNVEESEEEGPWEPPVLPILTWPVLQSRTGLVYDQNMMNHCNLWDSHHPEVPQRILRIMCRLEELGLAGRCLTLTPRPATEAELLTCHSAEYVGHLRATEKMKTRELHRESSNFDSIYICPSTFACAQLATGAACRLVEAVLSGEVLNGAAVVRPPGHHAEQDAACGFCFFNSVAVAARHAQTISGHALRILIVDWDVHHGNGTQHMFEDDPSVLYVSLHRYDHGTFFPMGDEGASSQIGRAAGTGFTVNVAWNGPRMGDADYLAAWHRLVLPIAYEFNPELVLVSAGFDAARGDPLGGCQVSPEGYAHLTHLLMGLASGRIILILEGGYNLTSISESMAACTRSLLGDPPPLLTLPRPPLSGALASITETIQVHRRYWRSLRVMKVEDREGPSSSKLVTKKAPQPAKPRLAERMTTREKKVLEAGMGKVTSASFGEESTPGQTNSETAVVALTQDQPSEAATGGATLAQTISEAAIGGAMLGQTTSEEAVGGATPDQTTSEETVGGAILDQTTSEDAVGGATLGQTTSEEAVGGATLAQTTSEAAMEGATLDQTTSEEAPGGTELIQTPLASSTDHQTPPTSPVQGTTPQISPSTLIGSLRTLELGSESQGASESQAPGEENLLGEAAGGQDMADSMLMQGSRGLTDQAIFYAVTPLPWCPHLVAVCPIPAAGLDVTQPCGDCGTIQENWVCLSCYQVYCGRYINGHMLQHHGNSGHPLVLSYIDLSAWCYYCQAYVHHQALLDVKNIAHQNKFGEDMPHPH

[14] = system: PC-12; assay: Inhibition of HDAC6 in rat PC12 cells assessed as induction of alpha-tubulin acetylation at 10 uM after 48 hrs by Western blotting analysis; assay type: cell-based
[15] = system: PC-12; assay: Cytotoxicity against rat PC12 cells at 25 uM; assay type: cell-based; conditions: pc-12, 25 µM
[16] = molecular target: Histone deacetylase 1 (Homo sapiens, UniProt Q13547); assay: Inhibition of human recombinant HDAC1 expressed in baculovirus/sf9 cells using RHKKAc as substrate
[17] = system: SH-SY5Y; assay: Induction of neurite outgrowth in human SH-SY5Y cells after 5 days; assay type: functional, cell-based; conditions: 120 h
[18] = molecular target: T4, Polyamine deacetylase HDAC10 (Homo sapiens, UniProt Q969S8); assay: Inhibition of human recombinant HDAC10 expressed in baculovirus/sf9 cells using RHKKAc as substrate
T4 sequence (Q969S8 whole entry): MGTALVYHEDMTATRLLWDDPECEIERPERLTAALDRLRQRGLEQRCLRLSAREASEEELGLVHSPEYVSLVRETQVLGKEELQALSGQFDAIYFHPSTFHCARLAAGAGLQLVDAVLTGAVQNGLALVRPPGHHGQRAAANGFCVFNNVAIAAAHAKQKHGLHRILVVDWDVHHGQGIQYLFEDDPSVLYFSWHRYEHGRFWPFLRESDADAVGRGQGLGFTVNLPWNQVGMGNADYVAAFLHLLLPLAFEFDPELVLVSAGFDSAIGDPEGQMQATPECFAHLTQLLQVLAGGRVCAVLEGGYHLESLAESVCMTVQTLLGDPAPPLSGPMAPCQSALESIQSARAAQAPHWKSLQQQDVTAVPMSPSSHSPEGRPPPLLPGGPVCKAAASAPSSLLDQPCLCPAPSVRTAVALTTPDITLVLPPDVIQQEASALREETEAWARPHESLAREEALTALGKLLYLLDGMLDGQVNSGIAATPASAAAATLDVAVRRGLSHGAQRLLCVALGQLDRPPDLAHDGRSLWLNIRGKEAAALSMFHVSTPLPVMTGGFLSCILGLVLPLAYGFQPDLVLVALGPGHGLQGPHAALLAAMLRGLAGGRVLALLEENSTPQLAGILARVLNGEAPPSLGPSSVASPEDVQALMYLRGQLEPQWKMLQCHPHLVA

[19] = molecular target: Histone deacetylase 2 (Homo sapiens, UniProt Q92769); assay: Inhibition of human recombinant HDAC2 expressed in baculovirus/sf9 cells using RHKKAc as substrate
[20] = species: Homo sapiens; assay: Selectivity index, ratio of IC50 for human recombinant HDAC8 to IC50 for human recombinant HDAC6
[21] = molecular target: T5, Amyloid-beta precursor protein (Homo sapiens, UniProt P05067); assay: Inhibition of amyloid beta aggregation (unknown origin) after 4 hrs by thioflavin S assay in presence of Zn2+
[22] = molecular target: T5, Amyloid-beta precursor protein; assay: Inhibition of amyloid beta aggregation (unknown origin) after 4 hrs by thioflavin S assay in absence of Zn2+
[23] = species: Homo sapiens; assay: Selectivity index, ratio of IC50 for human recombinant HDAC1 to IC50 for human recombinant HDAC6
[24] = system: PC-12; assay: Inhibition of HDAC6 in rat PC12 cells assessed as induction of alpha-tubulin acetylation after 48 hrs by Western blotting analysis; assay type: cell-based
[25] = system: Mus musculus; assay: Antialzheimer activity in wild type learning-impaired Balb/c mouse model with hippocampal lesions assessed as increase in acetylated alpha-tubulin level in hippocampus region at 10 mg/kg, ip administered for 30 days by rotarod test
[26] = system: Mus musculus; assay: Antialzheimer activity in wild type learning-impaired Balb/c mouse model with hippocampal lesions at 10 mg/kg, ip administered for 30 days by rotarod test relative to vehicle-treated control; conditions: Hippocampus, TDE = time-dependent effect
[27] = system: PC-12; assay: Induction iof GAP-43 protein expression in rat PC12 cells at 0.1 uM after 48 hrs by Western blotting analysis; assay type: functional, cell-based

T5 sequence (P05067 whole entry): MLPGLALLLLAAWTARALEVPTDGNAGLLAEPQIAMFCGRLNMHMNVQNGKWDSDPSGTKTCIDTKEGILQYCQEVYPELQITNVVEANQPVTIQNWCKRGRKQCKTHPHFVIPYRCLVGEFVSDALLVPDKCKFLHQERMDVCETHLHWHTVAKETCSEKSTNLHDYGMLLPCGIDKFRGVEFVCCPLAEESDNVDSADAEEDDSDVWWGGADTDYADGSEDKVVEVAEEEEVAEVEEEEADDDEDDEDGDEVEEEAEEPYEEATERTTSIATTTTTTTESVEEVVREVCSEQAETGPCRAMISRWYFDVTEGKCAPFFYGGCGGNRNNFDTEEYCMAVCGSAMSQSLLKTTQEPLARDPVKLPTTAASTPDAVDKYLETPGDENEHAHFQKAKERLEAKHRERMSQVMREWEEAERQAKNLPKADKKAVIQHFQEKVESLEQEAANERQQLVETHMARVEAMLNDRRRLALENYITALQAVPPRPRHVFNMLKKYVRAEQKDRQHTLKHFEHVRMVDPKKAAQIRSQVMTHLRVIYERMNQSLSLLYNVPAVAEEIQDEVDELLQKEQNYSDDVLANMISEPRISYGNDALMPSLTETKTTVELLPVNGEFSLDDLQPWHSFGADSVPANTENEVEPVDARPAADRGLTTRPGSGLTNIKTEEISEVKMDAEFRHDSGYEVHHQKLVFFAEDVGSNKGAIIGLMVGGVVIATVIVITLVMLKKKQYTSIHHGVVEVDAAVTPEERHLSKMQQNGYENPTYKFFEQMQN
Chain of Histone deacetylase 1 (Q13547 whole entry): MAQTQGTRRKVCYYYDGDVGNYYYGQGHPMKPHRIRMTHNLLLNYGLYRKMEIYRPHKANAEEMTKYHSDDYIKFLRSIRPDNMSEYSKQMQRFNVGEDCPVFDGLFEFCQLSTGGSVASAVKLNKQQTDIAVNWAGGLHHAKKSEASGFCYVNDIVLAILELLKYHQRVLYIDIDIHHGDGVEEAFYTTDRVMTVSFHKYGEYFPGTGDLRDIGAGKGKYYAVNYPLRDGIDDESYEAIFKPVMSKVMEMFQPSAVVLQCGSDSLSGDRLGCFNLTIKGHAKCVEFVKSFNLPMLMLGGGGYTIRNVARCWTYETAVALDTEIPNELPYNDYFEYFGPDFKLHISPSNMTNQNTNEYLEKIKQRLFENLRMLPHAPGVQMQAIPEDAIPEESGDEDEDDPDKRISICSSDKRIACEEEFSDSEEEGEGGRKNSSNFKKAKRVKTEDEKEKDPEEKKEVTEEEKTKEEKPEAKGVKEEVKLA
Chain of Histone deacetylase 2 (Q92769 whole entry): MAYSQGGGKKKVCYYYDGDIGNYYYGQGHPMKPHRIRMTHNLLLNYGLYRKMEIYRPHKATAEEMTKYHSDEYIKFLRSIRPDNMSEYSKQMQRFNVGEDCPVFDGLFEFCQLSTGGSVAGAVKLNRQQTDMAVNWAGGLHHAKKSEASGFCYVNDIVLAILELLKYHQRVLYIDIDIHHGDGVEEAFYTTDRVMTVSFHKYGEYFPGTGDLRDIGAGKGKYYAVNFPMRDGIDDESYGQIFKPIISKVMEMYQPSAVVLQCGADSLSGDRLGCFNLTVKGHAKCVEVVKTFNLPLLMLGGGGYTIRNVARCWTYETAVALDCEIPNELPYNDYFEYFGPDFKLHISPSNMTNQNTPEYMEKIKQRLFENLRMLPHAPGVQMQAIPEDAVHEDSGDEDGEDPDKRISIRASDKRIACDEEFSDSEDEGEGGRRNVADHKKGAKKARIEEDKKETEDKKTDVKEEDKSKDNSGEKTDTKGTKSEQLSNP
Chain of Poly [ADP-ribose] polymerase 1 (Homo sapiens) (P09874 whole entry): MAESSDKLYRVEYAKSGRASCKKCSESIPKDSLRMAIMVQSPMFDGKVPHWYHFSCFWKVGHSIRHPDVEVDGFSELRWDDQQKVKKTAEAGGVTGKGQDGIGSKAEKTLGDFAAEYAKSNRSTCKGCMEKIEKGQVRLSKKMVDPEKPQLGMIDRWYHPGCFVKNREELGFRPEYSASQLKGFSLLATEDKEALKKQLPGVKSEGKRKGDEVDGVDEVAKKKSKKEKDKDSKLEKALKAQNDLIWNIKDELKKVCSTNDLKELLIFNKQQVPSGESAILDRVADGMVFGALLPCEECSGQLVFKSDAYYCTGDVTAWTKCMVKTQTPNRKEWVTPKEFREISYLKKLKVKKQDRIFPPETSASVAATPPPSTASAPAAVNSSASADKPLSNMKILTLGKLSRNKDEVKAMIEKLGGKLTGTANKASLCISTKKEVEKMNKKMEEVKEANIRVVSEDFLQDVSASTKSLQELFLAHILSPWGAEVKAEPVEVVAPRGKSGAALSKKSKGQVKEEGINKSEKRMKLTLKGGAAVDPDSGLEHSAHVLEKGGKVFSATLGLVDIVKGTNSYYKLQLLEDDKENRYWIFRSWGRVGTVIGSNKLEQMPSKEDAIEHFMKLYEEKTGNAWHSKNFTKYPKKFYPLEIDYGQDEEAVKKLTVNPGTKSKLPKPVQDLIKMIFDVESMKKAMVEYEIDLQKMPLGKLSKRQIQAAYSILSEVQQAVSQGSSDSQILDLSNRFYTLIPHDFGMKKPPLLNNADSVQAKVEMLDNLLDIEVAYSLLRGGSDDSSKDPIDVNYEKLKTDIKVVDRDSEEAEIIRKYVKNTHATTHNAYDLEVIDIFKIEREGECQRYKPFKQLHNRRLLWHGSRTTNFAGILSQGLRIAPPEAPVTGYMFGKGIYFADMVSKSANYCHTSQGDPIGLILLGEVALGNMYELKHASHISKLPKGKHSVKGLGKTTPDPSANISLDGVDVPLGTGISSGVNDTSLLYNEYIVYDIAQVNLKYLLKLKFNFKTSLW

Row | Compound | inhibition [1] | Activity [2] | Activity [4] | IC50 [5] | Activity [8] | IC50 [9] | Activity [11] | Activity [12] | IC50 [13] | Activity [15] | IC50 [16] | IC50 [18] | IC50 [19] | Ratio IC50 [20] | IC50 [21] | IC50 [22] | Ratio IC50 [23] | other results
1 | CCc1nc2cc(Cc3ccc(C(=O)NO)cc3)ccc2c(=O)n1CCc1ccccc1 | inactive | Active | Active | 0.173 µM | Dose-dependent effect | 1.32 µM | Non-toxic | Non-toxic | 0.009 µM | Non-toxic | 4.85 µM | – | – | – | – | – | – | EC50 [3]: 9.3 µM; EC50 [6]: 5.5 µM; inhibition [7]: Active; EC50 [10]: 3.6 µM; inhibition [14]: Active; EC50 [17]: 9.8 µM
2 | Cc1nc2cccc(/C=C/C(=O)NO)c2c(=O)n1-c1ccccc1 | – | – | – | 1.06 µM | – | > 10 µM | Non-toxic | Non-toxic | 1.92 µM | Non-toxic | 18.6 µM | > 10 µM | > 10 µM | < 1 | > 50 µM | > 50 µM | 10 | –
3 | Cc1nc2ccc(/C=C/C(=O)NO)cc2c(=O)n1-c1ccccc1 | – | – | – | 0.609 µM | – | 5.22 µM | Non-toxic | Non-toxic | 0.032 µM | Non-toxic | 2.09 µM | 5.14 µM | 7.48 µM | 19 | > 50 µM | > 50 µM | 65 | –
4 | Cc1nc2cc(/C=C/C(=O)NO)ccc2c(=O)n1-c1ccccc1 | inactive | Active | Active | 3.88 µM | Dose-dependent effect | 1.35 µM | Non-toxic | Non-toxic | 0.088 µM | Non-toxic | – | 17.5 µM | 1.61 µM | – | – | – | – | inhibition [24]: Dose-dependent effect; Activity [25]: Active; Activity [26]: tde; Activity [27]: Active
5 | CCc1nc2cc(F)c(/C=C/C(=O)NO)cc2c(=O)n1CCc1ccccc1 | inactive | Active | Active | 0.766 µM | Dose-dependent effect | 4.68 µM | Non-toxic | Non-toxic | 0.008 µM | Non-toxic | 1.94 µM | – | 5.68 µM | – | – | – | – | EC50 [3]: 7.2 µM; EC50 [6]: 4.3 µM; inhibition [24]: Dose-dependent effect; EC50 [10]: 3.3 µM; Activity [27]: Active; EC50 [17]: 8.6 µM
6 | CC(/C=C/C(=O)NO)=C\[C@@H](C)C(=O)c1ccc(N(C)C)cc1 | – | Active | Active | – | Dose-dependent effect | – | – | – | – | – | – | – | – | – | – | – | – | inhibition [7]: Active; inhibition [14]: Active
7 | Cc1nc2c(/C=C/C(=O)NO)cccc2c(=O)n1-c1ccccc1 | – | – | – | 0.42 µM | – | > 10 µM | Non-toxic | Non-toxic | 0.69 µM | Non-toxic | 48.5 µM | 29.8 µM | > 10 µM | < 1 | > 50 µM | > 50 µM | 70 | –
